In patent US20260355171A1, “INHIBITORS AND USES THEREFOR” (priority 2022, published 2026):
Several values for one entry are separate records, joined by “and”; a condition that tells them apart may be missing. Equal values may be shown once. Read-outs that look alike come from different tables or passages of the source.

Assays:
[1] = Tissue (brain/lung) exposure, IP administration; assay type: in vivo, mouse; conditions: for Unbound Brain Parenchyma Concentration, individual / Unbound Plasma Concentration, individual / B:P ratio (brain:plasma), individual / L:P ratio, individual / Unbound B:P ratio (Kp,uu), individual / concentration / Kp at 0.5 h / concentration at 0.5 h / Kp uu at 0.5 h / Kp at 4 h / concentration at 4 h / Kp uu at 4 h / concentration at 24 h: 10 mg/kg; for Kp at 0.5 h / concentration at 0.5 h / Kp uu at 0.5 h / Kp at 4 h / concentration at 4 h / Kp uu at 4 h / concentration at 24 h: mouse, ip
Protocol: For the tissue collection, at 0.5, 4 and 24 h following IP administration, mice were anaesthetised (using gaseous isoflurane). Immediately after the submandibular bleed, mice were killed via cervical dislocation and the whole brain and lung were removed from each carcase. All these tissues were blotted to remove excess blood, placed into pre-weighed polypropylene vials and weighed. Tissue samples were snap frozen in dry ice and subsequently stored frozen at −80 °C until analysis. A summary of the bioanalytical method is included in Table 5.
Tissue: Pre-weighed tissue samples (brain and lung) were homogenised using a gentleMACS™ Octo Dissociator (Miltenyi Biotec, Macquarie Park, Australia) in buffer containing an EDTA/potassium fluoride solution (0.1 M/4 mg/mL) as a stabilisation cocktail to minimise the potential for ex vivo degradation (3 mL cocktail/g tissue). The tissue homogenate was briefly centrifuged (RCF=79×g) for 10 seconds to separate the foam layer before transferring an aliquot of the tissue homogenate (200 μL) to a fresh Eppendorf tube for sample extraction. Calibration standards were prepared by spiking blank brain and lung homogenate (200 μL) with the solution standards (10 μL) and the internal standard (10 μL). Study samples (for all tissue types) were similarly prepared, except that acetonitrile (10 μL) was added instead of solution standards to maintain the same volume. Protein precipitation was carried out by the addition of a 3-fold volume of acetonitrile, followed by vortex mixing and centrifugation (RCF=9391×g) for 3 min to recover the supernatant for analysis.
The concentration of compound 22 in brain or lung parenchyma was calculated on the basis of the measured concentration in brain or lung homogenate, after correcting for the contribution of compound contained within the vascular space of brain or lung samples as follows:
Ctissue=Ctissue homogentate−Ctissue vasculature where Ctissue vasculature=Cplasma×Vp • Ctissue=concentration of compound in brain or lung parenchyma (μM) • Ctissue homogenate=concentration of compound in brain or lung homogenate (μM) • Ctissue vasculature=concentration of compound in brain or lung vasculature (μM) • Cplasma=concentration of compound in plasma (μM)
Vp=brain plasma volume (0.017 mL/g for male C57BL/6 mice; Nicolazzo et al. (2010), Clinical and Experimental Pharmacology and Physiology, 37: 647-649) or lung plasma volume (0.16 mL/g of tissue, Boswell et al. (2014), Molecular Pharmaceutics, 11: 1591-1598)
Concentrations in brain or lung parenchyma were converted from units of ng/g to μM assuming a specific gravity of 1.
For each mouse, the tissue (brain or lung)-to-plasma concentration ratio (based on total concentrations in each matrix) was calculated as: […]
For brain uptake, the unbound brain-to-plasma partition coefficient (based on unbound concentrations in each matrix) was calculated as: […]

[2] = In vivo whole blood-to-plasma ratio; conditions: IV 3 mg/kg, 1 h post dose, mouse blood, n=3; read-out: B/P ratio (whole blood-to-plasma)
Protocol: As part of the assessment of the IV pharmacokinetics, blood was collected from mice (n=3) at 1 h post dose for the purposes of determining the whole blood-to-plasma (B/P) ratio.
Blood was collected via cardiac puncture (whilst under gaseous isoflurane anaesthesia) into tubes containing heparin. The haematocrit was determined via centrifugation [13000×g for 4 min using a Clemets® Microhematocrit centrifuge (Clements, Rydalmere, Australia) and Safecap® Plain Self-sealing Mylar Wrapped capillary tubes (Safe-Tec Clinical Products LLC, Broomall, USA)], and values ranged from 32% to 36% for blood samples across the three mice.
Each blood aliquot (25 μL) was collected and matrix matched with an equivalent volume of blank plasma. The remainder of the blood sample was centrifuged and 1×25 μL plasma aliquot was collected and matrix matched with an equivalent volume of blank blood. Samples were frozen on dry ice and subsequently stored at −80 °C until analysis by LC-MS. The B/P ratio was calculated on the basis of the LC-MS response of compound 22 in blood and plasma following centrifugation of whole blood and the average B/P ratio (n=3 mice) is reported.

[3] = 0.5 h, IP 10 mg/kg, individual mice
[4] = 0.5 h, IP 10 mg/kg, individual mice, 30 min
[5] = 4.0 h, IP 10 mg/kg, individual mice
[6] = 4.0 h, IP 10 mg/kg, individual mice, 240 min

In the case of NC(=O)C1CCN(c2ncccc2CNCc2cccc3[nH]ccc23)CC1 [Compound 22], the “Unbound Brain Parenchyma Concentration, individual” value [1, 3] is reported as 0.160 µM and 0.138 µM and 0.169 µM, the “Unbound Plasma Concentration, individual” value [1, 3] is reported as 1050 nM and 704 nM and 841 nM and the “B:P ratio (brain:plasma), individual” value [1, 4] is reported as 0.23. The “L:P ratio, individual” value [1, 4] was 2.8 and 2.6, the “Unbound B:P ratio (Kp,uu), individual” value [1, 4] was 0.20 and the concentration ([1]; 0.5 h, IP 10 mg/kg, individual mice, 30 min, read-out: Total Brain Parenchyma Concentration, individual) was 291 nM. The concentration ([1]; 0.5 h, IP 10 mg/kg, individual mice, 30 min, read-out: Total Lung Parenchyma Concentration, individual) was 3560 nM and 4000 nM, the concentration ([1]; 0.5 h, IP 10 mg/kg, individual mice, 30 min, read-out: Total Plasma Concentration, individual) was 1290 nM and 1540 nM and the “Unbound Brain Parenchyma Concentration, mean” value ([1]; 0.5 h, IP 10 mg/kg, mean) was 0.155 µM. For the same molecule, the “Unbound Plasma Concentration, mean” value ([1]; 0.5 h, IP 10 mg/kg, mean) was 866 nM, the “Unbound Brain Parenchyma Concentration, individual” value [1, 5] was 0.0292 µM and 0.0285 µM and the “Unbound Plasma Concentration, individual” value [1, 5] was 4.3 nM and 3.3 nM. For the same molecule, the “B:P ratio (brain:plasma), individual” value [1, 6] was 9.91, the “L:P ratio, individual” value [1, 6] was 68.6 and the “Unbound B:P ratio (Kp,uu), individual” value [1, 6] was 8.59. The concentration ([1]; 4.0 h, IP 10 mg/kg, individual mice, 240 min, read-out: Total Brain Parenchyma Concentration, individual) was 60.1 nM, the concentration ([1]; 4.0 h, IP 10 mg/kg, individual mice, 240 min, read-out: Total Lung Parenchyma Concentration, individual) was 416 nM and the concentration ([1]; 4.0 h, IP 10 mg/kg, individual mice, 240 min, read-out: Total Plasma Concentration, individual) was 6.1 nM. The “Unbound Brain Parenchyma Concentration, mean” value ([1]; 4.0 h, IP 10 mg/kg, mean) was 0.0288 µM, the “Unbound Plasma Concentration, mean” value ([1]; 4.0 h, IP 10 mg/kg, mean) was 3.8 nM and the “Unbound Brain Parenchyma Concentration, individual” value ([1]; 24 h, IP 10 mg/kg, individual mice) was 0.0060 µM and 0.0005 µM. The concentration ([1]; 24 h, IP 10 mg/kg, individual mice, 1440 min, read-out: Total Lung Parenchyma Concentration, individual) was 2.5 nM and 1.6 nM and 0.7 nM, the “Apparent tissue-to-plasma ratio (B:P or L:P) at 4 h versus 0.5 h” value ([1]; IP 10 mg/kg) was “substantially higher than that at 0.5 h” and the “Duration of measurable concentrations in brain” value ([1]; IP 10 mg/kg) was no more than 4 h. For the same molecule, the “Duration of measurable concentrations in lung” value ([1]; IP 10 mg/kg) was “up to 24 hours”, the “Unbound Brain Parenchyma Concentration, mean” value ([1]; IP 10 mg/kg, mean) was 0.0033 µM and the Kp at 0.5 h ([1]; brain, 0.5 h, individual mice, read-out: B:P ratio (brain:plasma), individual) was 0.18. The concentration at 0.5 h ([1]; brain, 0.5 h, individual mice, read-out: Total Brain Parenchyma Concentration, individual) was 337 nM, the Kp uu at 0.5 h ([1]; brain, 0.5 h, individual mice, read-out: Unbound B:P ratio (Kp,uu), individual) was 0.15 and the Kp at 0.5 h ([1]; brain, 0.5 h, mean, read-out: B:P ratio (brain:plasma), mean) was 0.21. The concentration at 0.5 h ([1]; brain, 0.5 h, mean, read-out: Total Brain Parenchyma Concentration, mean) was 328 nM, the Kp uu at 0.5 h ([1]; brain, 0.5 h, mean, read-out: Unbound B:P ratio (Kp,uu), mean) was 0.18 and the Kp at 4 h ([1]; brain, 4.0 h, individual mice, read-out: B:P ratio (brain:plasma), individual) was 7.9. It also gave a concentration at 4 h ([1]; brain, 4.0 h, individual mice, read-out: Total Brain Parenchyma Concentration, individual) of 61.6 nM, a Kp uu at 4 h ([1]; brain, 4.0 h, individual mice, read-out: Unbound B:P ratio (Kp,uu), individual) of 6.84 and a concentration at 4 h ([1]; brain, 4.0 h, mean, mouse 16 excluded, read-out: Total Brain Parenchyma Concentration, mean) of 60.9 nM. It also gave a Kp at 4 h ([1]; brain, 4.0 h, mean, read-out: B:P ratio (brain:plasma), mean) of 8.9, a Kp uu at 4 h ([1]; brain, 4.0 h, mean, read-out: Unbound B:P ratio (Kp,uu), mean) of 7.72 and a concentration at 24 h ([1]; brain, 24 h, mean, read-out: Total Brain Parenchyma Concentration, mean) of 6.9 nM. For the same molecule, the Kp at 0.5 h ([1]; lung, 0.5 h, individual mice, read-out: L:P ratio, individual) was 2, the concentration at 0.5 h ([1]; lung, 0.5 h, individual mice, read-out: Total Lung Parenchyma Concentration, individual) was 3830 nM and the Kp at 0.5 h ([1]; lung, 0.5 h, mean, read-out: L:P ratio, mean) was 2.5. It also gave a concentration at 0.5 h ([1]; lung, 0.5 h, mean, read-out: Total Lung Parenchyma Concentration, mean) of 3800 nM, a Kp at 4 h ([1]; lung, 4.0 h, individual mice, read-out: L:P ratio, individual) of 45.7 and a concentration at 4 h ([1]; lung, 4.0 h, individual mice, read-out: Total Lung Parenchyma Concentration, individual) of 356 nM. It also gave a concentration at 4 h ([1]; lung, 4.0 h, mean, mouse 16 excluded, read-out: Total Lung Parenchyma Concentration, mean) of 386 nM, a Kp at 4 h ([1]; lung, 4.0 h, mean, read-out: L:P ratio, mean) of 57.1 and a concentration at 24 h ([1]; lung, 24 h, mean, read-out: Total Lung Parenchyma Concentration, mean) of 2.1 nM. It also gave a concentration at 0.5 h ([1]; plasma, 0.5 h, individual mice, read-out: Total Plasma Concentration, individual) of 1920 nM, a concentration at 0.5 h ([1]; plasma, 0.5 h, mean, read-out: Total Plasma Concentration, mean) of 1580 nM and a concentration at 4 h ([1]; plasma, 4.0 h, individual mice, read-out: Total Plasma Concentration, individual) of 7.8 nM. The concentration at 4 h ([1]; plasma, 4.0 h, mean, mouse 16 excluded, read-out: Total Plasma Concentration, mean) was 6.9 nM and the blood plasma ratio at 1 h [2] was 1.4.
